Assay results published in patent US12528795B2, “Crystal form of multi-substituted benzene ring compound maleate, and preparation method therefor and use thereof” (EVOPOINT BIOSCIENCES CO., LTD., priority 2020, dated 2026).
Converted amounts (≈) assume the structure as drawn. “Also recorded” adds a separate entry of the source. Where two headings read alike, the source gives them in different places.

Experiments:
Assay type in all cases: physicochemical
[1] = Fluidity (angle of repose of a single API); settings: D90 controlled at 200 μm
[2] = Suspension competition experiments on crystal form A and hydrate crystal forms C and D of maleate at different water activities (XRPD); settings: for Result (crystal form by XRPD after suspension competition): H2O
Method: The mixtures were stirred at room temperature for 24 h, and then filtered to obtain saturated solutions. About 10 mg of a crystal form A/C/D of maleate was added to each saturated solution, the mixtures were suspended and stirred at room temperature for 2 days, and then subjected to the XRPD test. Two 5-mL vials were taken, water (2 mL) was added to each vial, and excessive crystal form B of maleate was added. The mixtures were stirred at 50° C./80° C. for 20 h/2 h, and then filtered to obtain saturated solutions. About 10 mg of the crystal form A/C/D of maleate was added to each saturated solution, and the mixtures were suspended and stirred at 50° C./80° C. for 1 day/3.5 h, and then subjected to the XRPD test.

[3] = Dynamic solubility in SGF, FaSSIF, FeSSIF and water at 37° C.; settings: thermodynamic from solid, sampling at 1, 2, 4 and 24 h, time point of the value not stated
Method: (§1) The purity and solubility of the samples in the test were tested by Waters ultra performance liquid chromatograph, and the conditions are shown in Table 6:
In the test, 45 mg of the solid and 4.5 mL of the vehicle were mixed in a 5 mL centrifuge tube, then the centrifuge tube was sealed and fixed on a rotating disk at a rotating speed of 40 rpm, and the rotating disk was placed in a 37° C. incubator. Sampling was performed at four time points of 1, 2, 4 and 24 h on equilibration, followed by filtration. The filtrate was separated at each sampling time point to test the concentration and pH, and the solid was tested for crystal form.

[4] = Suspension competition experiments on anhydrous crystal forms A and B of maleate (XRPD); settings: for Results (crystal form by XRPD after suspension competition): 3 days
Method: Suspention competition experiments on anhydrous crystal forms A and B of maleate were conducted as follows: Four 5-mL vials were taken, IPA (2 mL) and IPAc (2 mL) were added to each vial, and excessive crystal form B of maleate was added. The mixtures were stirred at room temperature/50° C. for 24 h, and then filtered to obtain saturated solutions of the maleate in IPA and IPAc. About 10 mg of a crystal form A/B of maleate was added to each saturated solution, the mixtures were suspended and stirred at room temperature/50° C. for 3 days, and then subjected to the XRPD test.

[5] = Physical and chemical stability in open vials (HPLC purity, XRPD); settings: for Crystal form change: XRPD; for Stability sample purity (area percentage): initial purity 98.86
Method: as §1
The solid samples placed under different conditions were tested for purity by HPLC to assess the chemical stability and for crystal form by XRPD to assess the physical stability.

[6] = Hygroscopicity by dynamic vapor sorption (DVS); settings: for Crystal form after DVS test: XRPD after DVS 0% RH-95% RH-0% RH, 25° C.
Method: Dynamic vapor sorption (DVS) curves were acquired on a DVS Intrinsic in Surface Measurement Systems (SMS). The relative humidity at 25° C. was corrected with the deliquescence points of LiCl, Mg(NO3)2 and KCl.
After the mass change rate over time was less than 0.002%, the moisture absorption characteristics of the samples when the humidity changed from 0% RH to 95% RH were tested, as well as the moisture desorption characteristics of the samples when the humidity changed from 0% RH to 95% RH to 0% RH were tested, and the humidity change step was 10% RH. The value of the mass change rate dm/dt less than 0.002% was considered as balance equilibration, the mass change rate within 10 min less than 0.002%/min was considered as the equilibration standard during the testing process, and the maximum equilibration time was 3 h. The isothermal moisture sorption/desorption characteristics under this test condition were determined and XRPD test was performed on the samples after the DVS test.

[7] = Crystal form transformation on heating, cooling or drying
Method: The obtained sample was determined to be a crystal form E of maleate of the multi-substituted benzene ring compound of formula II by X-ray powder diffraction.

[8] = Suspension competition experiments on crystal form A and hydrate crystal forms C and D of maleate at different water activities (XRPD); settings: room temperature, 3.5 h
[9] = FaSSIF, FaSSIF, read-out: Dynamic solubility in FaSSIF
[10] = FeSSIF, FeSSIF, read-out: Dynamic solubility in FeSSIF
[11] = SGF, simulated gastric fluid, SGF, read-out: Dynamic solubility in SGF
[12] = water, water, read-out: Dynamic solubility in water
[13] = open vial, 25° C./60% RH, one week
[14] = open vial, 40° C./75% RH, one week

## CCN(c1cc(O[C@H]2C[C@H](N3CCCCC3)C2)cc(C(=O)NCc2c(C)cc(C)[nH]c2=O)c1C)C1CCOCC1.O=C(O)/C=C\C(=O)O [Crystal form A of maleate]
[1]
  Angle of repose of a single API: about 40 °
[1]; as printed in b231
  Angle of repose of a single API: about 400
[2]; conclusion from the examples and suspension competition experiments
  Stability ranking among the 5 crystal forms of maleate: most stable among the 5 crystal forms of maleate
[3]; [9]
  solubility: 4150 µg/mL
[3]; [10]
  solubility: > 7350 µg/mL
[3]; [11]
  solubility: ≥ 6000 µg/mL
[3]; [12]
  solubility: 6990 µg/mL
[4]; room temperature/50° C.
  Relative stability of crystal forms A and B of maleate: more stable than the crystal form B
[5]; before storage
  Initial purity (area percentage): 98.86 area percentage
[5]; [13]
  Crystal form change: Unchanged
  Stability sample purity (area percentage): 98.79 area percentage
[5]; [14]
  Crystal form change: Unchanged
  Stability sample purity (area percentage): 98.79 area percentage
[5]; open vial, 60° C. one day, 25° C./60% RH and 40° C./75% RH one week
  Physical and chemical stability under three test conditions: did not undergo crystal form transformation and chemical purity decrease; also recorded: no crystal form transformation and chemical purity decrease
[5]; open vial, 60° C., 24 h
  Crystal form change: Unchanged
  Stability sample purity (area percentage): 98.79 area percentage
[6]
  DVS vapor sorption (25° C./80% RH, %): 0.4%
  Crystal form after DVS test: Unchanged
[6]; listed as crystal form A of maleate
  Crystal form after DVS test: crystal form transformation did not occur

## CCN(c1cc(O[C@H]2C[C@H](N3CCCCC3)C2)cc(C(=O)NCc2c(C)cc(C)[nH]c2=O)c1C)C1CCOCC1.O=C(O)/C=C\C(=O)O [Crystal form C of maleate]
[7]; dried at 170° C.
  Crystal form transformation after drying: transformed into the crystal form A
[2]; ethanol solution with a water activity of 0.2 or absolute ethanol, room temperature
  Crystal form transformation by suspending and stirring: transformed into the crystal form A

## CCN(c1cc(O[C@H]2C[C@H](N3CCCCC3)C2)cc(C(=O)NCc2c(C)cc(C)[nH]c2=O)c1C)C1CCOCC1.O=C(O)/C=C\C(=O)O [Crystal form A/B of maleate]
[4]; IPA, 50° C.
  Results (crystal form by XRPD after suspension competition): Crystal form A of maleate
[4]; IPA, room temperature
  Results (crystal form by XRPD after suspension competition): Crystal form A of maleate
[4]; IPAc, 50° C.
  Results (crystal form by XRPD after suspension competition): Crystal form A of maleate
[4]; IPAc, room temperature
  Results (crystal form by XRPD after suspension competition): Crystal form A of maleate

## CCN(c1cc(O[C@H]2C[C@H](N3CCCCC3)C2)cc(C(=O)NCc2c(C)cc(C)[nH]c2=O)c1C)C1CCOCC1.O=C(O)CCC(=O)O [Crystal form A of succinate]
[3]; [9]
  solubility: 5390 µg/mL
[3]; [10]
  solubility: > 7350 µg/mL
[3]; [11]
  solubility: ≥ 6000 µg/mL
[3]; [12]
  solubility: > 8440 µg/mL
[6]
  DVS vapor sorption (25° C./80% RH, %): 2.1%

## CCN(c1cc(O[C@H]2C[C@H](N3CCCCC3)C2)cc(C(=O)NCc2c(C)cc(C)[nH]c2=O)c1C)C1CCOCC1.O=C(O)/C=C\C(=O)O [Crystal form E of maleate]
[7]; form obtained only at high temperature, then cooled to room temperature
  Crystal form transformation after cooling to room temperature: retransformed into the crystal form A of maleate

## CCN(c1cc(O[C@H]2C[C@H](N3CCCCC3)C2)cc(C(=O)NCc2c(C)cc(C)[nH]c2=O)c1C)C1CCOCC1.O=C(O)/C=C\C(=O)O [Crystal form A/C/D of maleate]
[2]; 50° C., 1 day
  Result (crystal form by XRPD after suspension competition): Crystal form C of maleate
[2]; 80° C., 3.5 h
  Result (crystal form by XRPD after suspension competition): Crystal form C of maleate
[8]; EtOH
  Result (crystal form by XRPD after suspension competition): Crystal form A of maleate
[8]; EtOH/H2O (70:30, aw = 0.8)
  Result (crystal form by XRPD after suspension competition): Crystal form C of maleate
[8]; EtOH/H2O (82:18, aw = 0.6)
  Result (crystal form by XRPD after suspension competition): Crystal form C of maleate
[8]; EtOH/H2O (91:9, aw = 0.4)
  Result (crystal form by XRPD after suspension competition): Crystal form C of maleate
[8]; EtOH/H2O (96:4, aw = 0.2)
  Result (crystal form by XRPD after suspension competition): Crystal form A of maleate
[8]; H2O
  Result (crystal form by XRPD after suspension competition): Crystal form C of maleate

## CCN(c1cc(O[C@H]2C[C@H](N3CCCCC3)C2)cc(C(=O)NCc2c(C)cc(C)[nH]c2=O)c1C)C1CCOCC1 [Free crystal form D]
[3]; [9]
  solubility: 420 µg/mL (≈ 763 µM)
[3]; [10]
  solubility: > 7350 µg/mL
[3]; [11]
  solubility: 6980 µg/mL (≈ 12700 µM)
[3]; [12]
  solubility: 16 µg/mL (≈ 29.1 µM)
[6]
  DVS vapor sorption (25° C./80% RH, %): 1.3%

## Br.CCN(c1cc(O[C@H]2C[C@H](N3CCCCC3)C2)cc(C(=O)NCc2c(C)cc(C)[nH]c2=O)c1C)C1CCOCC1 [Crystal form A of hydrobromide]
[3]; [9]
  solubility: 1390 µg/mL
[3]; [10]
  solubility: 5330 µg/mL
[3]; [12]
  solubility: 4260 µg/mL
[6]
  DVS vapor sorption (25° C./80% RH, %): 5.2%
